For this assay, the target named is T1, human wild-type (WT)-pendrin (Homo sapiens, UniProt O43511).
T1 construct: expressed in transfected cells
T1 sequence (O43511 1-780): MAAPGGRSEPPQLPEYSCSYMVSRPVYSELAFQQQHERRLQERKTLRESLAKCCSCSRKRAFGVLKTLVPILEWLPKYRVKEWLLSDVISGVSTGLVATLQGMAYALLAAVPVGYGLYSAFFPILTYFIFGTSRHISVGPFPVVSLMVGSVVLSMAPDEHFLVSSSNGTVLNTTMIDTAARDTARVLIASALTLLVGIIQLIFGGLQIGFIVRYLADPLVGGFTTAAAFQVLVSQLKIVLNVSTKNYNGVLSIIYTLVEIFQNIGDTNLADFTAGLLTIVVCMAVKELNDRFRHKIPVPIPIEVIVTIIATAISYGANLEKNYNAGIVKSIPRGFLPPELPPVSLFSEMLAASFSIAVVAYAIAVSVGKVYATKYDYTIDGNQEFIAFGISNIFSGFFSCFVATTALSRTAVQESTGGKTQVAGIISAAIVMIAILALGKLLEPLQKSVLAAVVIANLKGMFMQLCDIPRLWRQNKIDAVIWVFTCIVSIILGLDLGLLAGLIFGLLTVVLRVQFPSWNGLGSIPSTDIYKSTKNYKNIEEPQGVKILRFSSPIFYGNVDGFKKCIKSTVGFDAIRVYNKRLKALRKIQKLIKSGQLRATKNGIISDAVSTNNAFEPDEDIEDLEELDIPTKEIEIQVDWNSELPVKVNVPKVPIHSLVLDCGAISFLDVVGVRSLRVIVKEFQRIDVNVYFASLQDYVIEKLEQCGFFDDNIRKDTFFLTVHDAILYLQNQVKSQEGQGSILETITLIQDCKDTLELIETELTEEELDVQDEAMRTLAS
Nature of the assay: Pendrin-mediated Cl^−/I^− exchange activity, YFP fluorescence in CHO-K1 cells. It counts as cell-based. To be noted: CHO-K1, 30 μM; read-out: Pendrin inhibitory activity at 30 μM (%). As for the experimental part:
Chinese hamster ovary (CHO)-K1 cells were maintained in a DMEM medium containing 10% fetal bovine serum (FBS), 100 units/ml penicillin and 100 100 μg/ml streptomycin. CHO-K1 cells were stably transfected with pcDNA3.1 encoding halide sensor YFP-H148Q/I152L/F46L and human wild-type (WT)-pendrin. For distribution of primary culture of human nasal cavity epithelium (HNE) cells, passage-2 cells were seeded into transwell-transparent culture inserts with a pore size of 0.45 μm (Costar Co., Cambridge, MA) at a density of 2×10^5 cells/cm^2. The cells were maintained in a 1:1 mixture of Dulbecco's modified Eagle's medium (Lonza, Walkersville, MD) and bronchial epithelial growth medium (Lonza) supplemented with the following growth factors according to the manufacturer's instructions. After immersing the cells for the first 7 days, they were exposed to the apical air interface for the remainder of the culture period. After establishment of the air-liquid interface, the cells were used between 14 and 21 days. At all stages of culture, the cells were maintained at 37° C. under 5% CO2 in an air incubator.
CHO-K1 cells expressing human WT pendrin and YFP-F46L/H148Q/I152L were plated on a 96-well microplate at a density of 2×10^4 cells per well and cultured for 48 hours. Each well of the cell cultured 96-well plate was washed with PBS of 200 μL twice and was filled with HEPES buffer solution of 50 μL, respectively. […] After culturing at 37° C. for 10 minutes, the 96-well plate was positioned on FLUOstar Omega microplate reader (BMG Labtech, Ortenberg, Germany) for fluorescence analysis. By continuously (400 ms per point) recording fluorescence for 1 second (base line), each well was individually analyzed for pendrin-mediated I^− inflow, and then at 1 second, 50 μL of NaI-substituted HEPES buffer solution (NaI replacing NaCl) was added using a liquid injector and the YFP fluorescence was recorded for 5 seconds. The initial iodide inflow rate was determined from the initial slope of fluorescence by nonlinear regression, after injection the iodide (See FIG. 1).
For measurement of Cl^−/I^− exchange activity, YFP fluorescence was measured in pendrin and halide sensor YFP expressing CHO-K1 cells. Each well of the cell cultured 96-well plate was washed with PBS of 200 μL twice, and was filled with HEPES buffer solution (140 mM NaCl, 5 mM KCl, 1 mM MgCl2, 1 mM CaCl2, 10 mM glucose and 10 mM HEPES (pH 7.4)), respectively. […] After culturing at 37° C. for 10 minutes, the 96-well plate was positioned on FLUOstar Omega microplate reader (BMG Labtech, Ortenberg, Germany) for fluorescence analysis.
By continuously (400 ms per point) recording fluorescence for 1 second (base line), each well was individually analyzed for pendrin-mediated I^− inflow, and then at 1 second, 50 μL of NaI-substituted HEPES buffer solution (140 mM NaI, 5 mM KCl, 1 mM MgCl2, 1 mM CaCl2, 10 mM glucose and 10 mM HEPES (pH 7.4)) was added using a liquid injector and the YFP fluorescence was recorded for 5 seconds. The initial iodide inflow rate was determined from the initial slope of fluorescence by nonlinear regression, after injection the iodide.
Turning to `CC(C)c1ccc(C=C2N=C(c3cccc4ccccc34)OC2=O)cc1` [F62, 4-(4-Isopropylbenzylidene)-2-(naphthalen-1-yl)oxazol-5 (4H)-one], the inhibition at 30 µM is 2.4%.

In the case of `Cc1ccc(C2=NC(=Cc3cccs3)C(=O)O2)cc1I` [F63, 2-(3-Iodo-4-methylphenyl)-4-(thiophen-2-ylmethylene)oxazol-5(4H)-one], the inhibition at 30 µM stood at 1.6%.

Regarding `CC(C)(C)c1ccc(C2=NC(=Cc3ccc(OCc4ccccc4)cc3)C(=O)O2)cc1` [F64, 4-(4-(Benzyloxy)benzylidene)-2-(4-(tert-butyl)phenyl)oxazol-5 (4H)-one], the inhibition at 30 µM is 2.8%.

Consider `O=C1OC(c2ccccc2)=NC1=Cc1cccn1Cc1ccccc1Cl` [F65, 4-((1-(2-Chlorobenzyl)-1H-pyrrol-2-yl)methylene)-2-phenyloxazol-5(4H)-one], for which the inhibition at 30 µM was found to be 1.7%.

For the compound `C=CCOc1cc(N(CC)CC)ccc1C=C1N=C(c2ccc(NC(=O)c3cncc(Br)c3)cc2)OC1=O` [F66, N-(4-(4-(2-(Allyloxy)-4-(diethylamino)benzylidene)-5-oxo-4,5-dihydrooxazol-2-yl)phenyl)-5-bromonicotinamide], the inhibition at 30 µM was 2.3%.

For the compound `CC(C)(C)c1ccc(C(=O)Oc2ccc(C=C3N=C(c4ccccc4Cl)OC3=O)cc2)cc1` [F67, 4-((2-(2-Chlorophenyl)-5-oxooxazol-4(5H)-ylidene)methyl)phenyl4-(tert-butyl)benzoate], the inhibition at 30 µM came to 3.2%.

Regarding `CCC(/C=C1\Sc2ccc(OC)cc2N1CC)=C1N=C(c2ccccc2)OC1=O` [F68, 4-((Z)-1-(3-ethyl-5-methoxybenzo[d]thiazol-2(3H)-ylidene)butan-2-ylidene)-2-phenyloxazol-5(4H)-one], the inhibition at 30 µM amounted to 4.3%.

As to `CCOc1cc(C=C2N=C(c3ccc(NC(C)=O)cc3)OC2=O)ccc1OC(=O)c1cccs1` [F69, 4-((2-(4-Acetamidophenyl)-5-oxooxazol-4(5H)-ylidene)methyl)-2-ethoxyphenylthiophene-2-carboxylate], the inhibition at 30 µM worked out at 3.8%.

`CCOc1ccc2nc(Sc3ccccc3)c(C=C3N=C(c4ccccc4)OC3=O)cc2c1` [F70, 4-((6-Ethoxy-2-(phenylthio)quinolin-3-yl)methylene)-2-phenyloxazol-5(4H)-one]: the inhibition at 30 µM came out at 3.1%.

As to `Cc1nn(-c2ccccc2)c(Cl)c1C=C1N=C(c2cccc(Br)c2)OC1=O` [F71, 2-(3-Bromophenyl)-4-((5-chloro-3-methyl-1-phenyl-1H-pyrazol-4-yl)methylene)oxazol-5(4H)-one], the inhibition at 30 µM was determined as 4.4%.

`CC(=O)n1cc(C=C2N=C(c3ccc(Br)cc3)OC2=O)c2ccccc21` [F72, 4-((1-Acetyl-1H-indol-3-yl)methylene)-2-(4-bromophenyl)oxazol-5(4H)-one]: the inhibition at 30 µM is 2.8%.

As to `CC(C)(C)c1ccc(C2=NC(=Cc3ccc(-c4cccc(C(F)(F)F)c4)o3)C(=O)O2)cc1` [F73, 2-(4-(tert-butyl)phenyl)-4-((5-(3-(trifluoromethyl)phenyl)furan-2-yl)methylene)oxazol-5(4H)-one], the inhibition at 30 µM turned out to be 2.9%.

For the compound `COc1ccc2cc(C=C3N=C(c4ccccc4)OC3=O)c(=O)[nH]c2c1` [F74, 4-((7-Methoxy-2-oxo-1,2-dihydroquinolin-3-yl)methylene)-2-phenyloxazol-5(4H)-one], the inhibition at 30 µM worked out at 2.4%.

As to `COc1ccc(C2=NC(=C3C=C(c4cccs4)Oc4ccccc43)C(=O)O2)cc1` [F75, 2-(4-Methoxyphenyl)-4-(2-(thiophen-2-yl)-4H-chromen-4-ylidene)oxazol-5 (4H)-one], the inhibition at 30 µM was found to be 2.3%.

As to `Cc1ccc(C2=NC(=Cc3cn(S(=O)(=O)N(C)C)c4ccccc34)C(=O)O2)cc1` [F76, N,N-Dimethyl-3-((5-oxo-2-(p-tolyl)oxazol-4(5H)-ylidene)methyl)-1H-indole-1-sulfonamide], the inhibition at 30 µM was 1.9%.

The values are drawn from patent publication US12691101B2, “Compound and method for preventing or treating of respiratory diseases comprising the same as an active ingredient” (YONSEI UNIVERSITY, UNIVERSITY - INDUSTRY FOUNDATION (UIF), priority 2019, dated 2026).
